Here are results for one compound from publication PMC11413778, “Honokiol enhances the sensitivity of cetuximab in KRAS^G13D mutant colorectal cancer through destroying SNX3-retromer complex” (Theranostics, 2024).

The target of this test is T1, SNX3 (Homo sapiens, UniProt O60493).
T1 construct: Recombinant Human SNX3 protein (ab109970)
Nature of the test: biolayer interferometry (biotinylated SNX3 on SA biosensor), supported by CETSA in HCT116 and LoVo lysates. Type of test: binding.

T1 sequence (O60493 2-162): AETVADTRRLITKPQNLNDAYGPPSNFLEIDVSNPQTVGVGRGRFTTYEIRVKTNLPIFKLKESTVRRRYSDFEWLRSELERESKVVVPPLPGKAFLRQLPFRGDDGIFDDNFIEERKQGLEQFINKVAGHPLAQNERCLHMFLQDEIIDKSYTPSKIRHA

Broadly, the Kd is the constant that tells how readily two partners part at equilibrium. A low value points to a tighter complex. Consider `C=CCc1ccc(O)c(-c2ccc(O)c(CC=C)c2)c1` [HNK, honokiol], for which the dissociation constant Kd worked out at 29 µM.
